Experimental data published in patent US20260166029A1, “METHODS AND SYSTEMS FOR TREATING DISEASE USING AN ATR/CHK1 SIGNALING PATHWAY INHIBITOR” (Acrivon Therapeutics, Inc., priority 2022, published 2026).
“And” between values parts separate entries of the source, which are not always exact repeats. Equal entries are not always repeated. Where two headings read alike, the source gives them in different places.

How the values were obtained:
Ovarian, metastases = conditions: cited from earlier work
SCLC = conditions: cited from earlier work
PANC1 = PANC1 cell line; external data from prior publications; cited from earlier work
BxPC3 = assay: Cell Titer Glo 2.0 relative cell viability, 72 h (Example 10); assay type: cell-based; conditions: Homo sapiens, BXPC-3, BxPC3 cell line, read-out: Abs IC50
Experimental: (§1) The present Example provides experimental evidence that cell lines predicted to be sensitive to a Chk1 inhibitor (e.g., prexasertib, are also sensitive to Wee1 inhibitors (e.g., adavosertib (AZD1775, MK1775) and azenosertib (Zn-C3)). Cell lines were treated with increasing doses of either prexasertib, adavosertib, or azenosertib, and relative cell viability against a DMSO control was assessed 72 h after drug treatment using Cell Titer Glo 2.0 (Promega) and a SpectraMax microplate reader. The results are shown in FIGS. 19A-19C. Error bars represent standard deviations from quadruplicate samples.

A375 = assay: as above; assay type: cell-based; conditions: Homo sapiens, A-375, A375 cell line, read-out: Abs IC50
Experimental: as §1

HeLa = assay: as above; assay type: cell-based; conditions: Homo sapiens, HeLa cell line, read-out: Abs IC50
Experimental: as §1

A2780 = assay: as above; assay type: cell-based; conditions: Homo sapiens, A2780 cell line, read-out: Abs IC50
Experimental: as §1

T47D = assay: as above; assay type: cell-based; conditions: Homo sapiens, T47D cell line, read-out: Abs IC50
Experimental: as §1

PC3 = assay: as above; assay type: cell-based; conditions: Homo sapiens, PC-3, PC3 cell line, read-out: Abs IC50
Experimental: as §1

OVCAR3 = assay: as above; assay type: cell-based; conditions: Homo sapiens, OVCAR-3, OVCAR3 cell line, read-out: Abs IC50
Experimental: as §1

[1] = test system: metastatic high-grade serous ovarian cancer; assay: Observed treatment outcome in phase II clinical trials, patients with frozen pre-treatment biopsies (Example 4); assay type: in vivo, human; set-up: key to Treatment Result (RECIST): partial response (PR); stable disease (SD); progressive disease (PD)
Experimental: The study was conducted in a blinded, prospectively designed manner on pretreatment tumor biopsies collected from ovarian cancer patients treated in phase 2 trials at the NCI in the past with prexasertib, including a previous single center phase II clinical trial for prexasertib in metastatic high-grade serous ovarian cancer; see Lee et al., Lancet Oncol. 19(2): 207-215 (2018). These past studies were unable to identify predictive biomarkers. To evaluate whether a provided Response-Predictive Signature can successfully predict patient responders, frozen, de-identified sections of pre-treatment tumor biopsies from the phase II clinical trials were obtained. Moreover, they were received without any knowledge about clinical annotation, including response to prexasertib. Each patient tumor biopsy sample was stained using antibodies against three biomarkers and imaged using immunofluorescence microscopy. Biomarker 1 (BM1) was Ser296 phosphorylated Chk1. Biomarker 2 (BM2) was Ser473 phosphorylated Kap1. Biomarker 3 (BM3) was total cyclin E1. Unless otherwise indicated, these were the biomarkers used throughout the Examples.
To evaluate whether the provided Response-Predictive Signature can predict response to prexasertib treatment, the predicted response for each patient was compared to the observed treatment outcomes in the previously conducted phase II clinical trials for the patient (Table 6 and FIGS. 5, 12, and 13). This was done in a blinded manner, with quantitative biomarker scores and clinical annotation provided to a third-party biostatistician and the principal investigator, respectively. Observed treatment outcomes were classified according to RECIST criteria as partial response (PR), stable disease (SD), or progressive disease (PD). […] Additionally, the observed treatment outcome was quantified based on the fractional change in tumor volume after treatment and progression free survival (PFS) (Table 6 and FIGS. 5, 12, and 13).

Head and Neck, SCC = conditions: cited from earlier work
OVCAR3 cells = assay: Cell Titer Glo 2.0 viability after biomarker siRNA knockdown (Example 6); assay type: cell-based; conditions: Homo sapiens, OVCAR-3, 72 h, read-out: absolute EC50
Experimental: OVCAR3 cells cultured in RPMI medium with 20% FBS were transfected with siRNA (Silencer Select, cat #4390824, ThermoFisher) targeting TRIM28 (KAP1) CCNE1, CCNA2, or CHEK2, as compared with a negative control siRNA (cat #4390843, ThermoFisher) using RNAiMAX transfection reagent (ThermoFisher). Twenty-four hours after the transfection, cells were reseeded into 384-well plates and left to adhere for 24 hours before being treated with increasing doses of prexasertib. Relative cell viability against a DMSO control was assessed 72 hours after drug treatment using Cell Titer Glo 2.0 (Promega) and a SpectraMax microplate reader. Error bars represent standard deviations from quadruplicate samples.

ST022 ovarian PDX tumor = assay: Response to prexasertib treatment in ovarian PDX tumor model (Example 3); assay type: in vivo
Text: (§2) To evaluate whether the provided Response-Predictive Signature can predict response to prexasertib treatment, the predicted response for each PDX model was compared to an experimentally determined response to prexasertib treatment for the same PDX model. The experimentally measured response was quantified as follows: if a treated tumor reduced in size/volume, then the percent regression compared to an initial volume of a treated tumor was provided, if a treated tumor increased in size/volume, then a percent ratio of the treated tumor's growth was divided by control tumor (i.e., untreated tumor) growth (d[T/C]). Negative values for regression percentage indicate response to treatment with prexasertib, while positive values indicate continued growth and non-response to prexasertib treatment. The experimentally measured response was further categorized as complete regression (near −100% regression), partial regression (−50% to −100% regression), stasis (<20% median tumor growth to −50% regression), and growth (>20% median tumor growth).

ST416 ovarian PDX tumor = assay: as above; assay type: in vivo
Text: as §2

[2] = individual patients predicted non-responder (NR)
[3] = individual patients predicted responder (R)

In the case of `COc1cccc(OCCCN)c1-c1cc(Nc2cnc(C#N)cn2)n[nH]1` [prexasertib, 5-(5-(2-(3-aminopropoxy)-6-methoxyphenyl)-1H-pyrazol-3-ylamino)pyrazine-2-carbonitrile], the ORR in trials (Ovarian, metastases; Ovarian, metastases, trial 1, NCI phase II trial) is listed as 32% (trial 1*), the response rate (Ovarian, metastases; single center, phase 2 study in ovarian cancer at NCI, single agent) is listed as 29% and the ORR in trials (SCLC; platinum resistant) is listed as 0% (platinum. For the same molecule, the ORR in trials (SCLC; platinum sensitive) was 5% (platinum, the EC50 (PANC1) was over 10000 nM and the IC50 (BxPC3) was 1.4 nM. The IC50 (A375) was 1.8 nM, the IC50 (HeLa) was 15 nM and the IC50 (A2780) was over 10000 nM. It also gave an IC50 (T47D) of over 10000 nM, an IC50 (PC3) of over 10000 nM and an IC50 (OVCAR3) of 0.9 nM. For the same molecule, the “FracShrink (fractional change in tumor volume)” value [1, 2] was 0.109 and 0 and −0.26 and −0.1 and 1.04 and 0.02 and 0.085 and −0.04, the PFS [1, 2] was 70 days and 56 days and 223 days and 104 days and 63 days and 33 days and 62 days and 112 days and the “Treatment Result (RECIST)” value [1, 2] was “SD (4×) and PD (4×)”. The “FracShrink (fractional change in tumor volume)” value [1, 3] was −0.36 and −0.345 and −0.46 and −0.33 and −0.27 and −0.01 (2×) and −0.23 and −0.76 and −0.14 and −0.02 and −0.11 and −0.5 and −0.495 and −0.194, the PFS [1, 3] was 101 days and 402 days and 286 days and 211 days and 392 days and 62 days and 510 days and 602 days and 238 days and 258 days and 140 days and 293 days and 230 days and 112 days and 123 days and the “Treatment Result (RECIST)” value [1, 3] was “PR (7×) and SD (7×) and PD”. For the same molecule, the ORR in trials (Head and Neck, SCC) was 5%, the EC50 (OVCAR3 cells; BM1 (CHEK2 (Chk2)) siRNA knockdown) was 31 nM and the EC50 (OVCAR3 cells; BM2 (TRIM28 (KAP1)) siRNA knockdown) was over 10000 nM. For the same molecule, the EC50 (OVCAR3 cells; BM3 (CCNA2 (cyclin A2)) siRNA knockdown) was 164 nM, the EC50 (OVCAR3 cells; BM3 (CCNE1) siRNA knockdown) was over 10000 nM and the EC50 (OVCAR3 cells; negative control siRNA in the BM1 (CHEK2 (Chk2)) knockdown experiment) was 12 nM. The EC50 (OVCAR3 cells; negative control siRNA in the BM2 (TRIM28 (KAP1)) knockdown experiment) was 100 nM, the EC50 (OVCAR3 cells; negative control siRNA in the BM3 (CCNA2 (cyclin A2)) knockdown experiment) was 24 nM and the EC50 (OVCAR3 cells; negative control siRNA in the BM3 (CCNE1 (cyclin E1)) knockdown experiment) was 25 nM. For the same molecule, the Response type (ST022 ovarian PDX tumor) was “G (G = growth)”, the “Best d[T/C], or Regression” value (ST022 ovarian PDX tumor; negative = regression) was 21.1% and the Response type (ST416 ovarian PDX tumor) was “S (S = stasis)”. For the same molecule, the “Best d[T/C], or Regression” value (ST416 ovarian PDX tumor; negative = regression) was −9%.
